The values below come from paper PMC10669037, “CRISPR/Cas12a Collateral Cleavage Activity for Sensitive 3′–5′ Exonuclease Assay” (Biosensors, 2023).

The subject of the test is T1, Exonuclease III (Exo III).
T1 construct: gene xthA; commercial enzyme from New England BioLabs
Briefly: hairpin DNA digestion, coupled to Cas12a collateral cleavage of fluorescent reporter. The test is classed as biochemical. Particulars: acts by metal chelation, not a specific binder; Exo III 5 U/mL, 10 min preincubation, hairpin probe substrate, magnesium acetate buffer pH 7.9, 37 °C; EDTA carried into the Cas12a read-out step.

As to `O=C(O)CN(CCN(CC(=O)O)CC(=O)O)CC(=O)O` [EDTA], the IC50 stood at 6.34 mM.
